Source: ChEMBL document CHEMBL1909046, “DrugMatrix in vitro pharmacology data”

Tests used:
[1] = DRUGMATRIX: Sigma2 radioligand binding (ligand: [3H] Ifenprodil); assay type: cell membranes, Rattus norvegicus, Wistar, Brain, Membrane; conditions: Not Active = under 50% inhibition at 10 µM
[2] = DRUGMATRIX: Glutamate, AMPA radioligand binding (ligand: [3H] AMPA); assay type: cell membranes, Rattus norvegicus, Wistar, Cerebral cortex, Membrane; conditions: Not Active = under 50% inhibition at 10 µM
[3] = DRUGMATRIX: Glutamate, Kainate radioligand binding (ligand: [3H] Kainic acid); assay type: cell membranes, Rattus norvegicus, Wistar, Brain, Membrane; conditions: Not Active = under 50% inhibition at 10 µM
[4] = DRUGMATRIX: Glutamate, NMDA, Phencyclidine radioligand binding (ligand: [3H] TCP); assay type: cell membranes, Rattus norvegicus, Wistar, Cerebral cortex, Membrane; conditions: Not Active = under 50% inhibition at 10 µM
Glycine receptor = Glycine receptor (Rattus norvegicus, UniProt P22771+P24524+P07727+P20781); assay type: cell membranes, Wistar, Spinal cord, Membrane; further: in other assays of this panel Not Active means under 50% inhibition at 10 µM
Nitric oxide synthase 1 = Nitric oxide synthase 1 (Rattus norvegicus, UniProt P29476); assay type: tissue-based, Cerebellum; further: in other assays of this panel Not Active means under 50% inhibition at 10 µM
Nitric oxide synthase 1, sequence (P29476 whole entry): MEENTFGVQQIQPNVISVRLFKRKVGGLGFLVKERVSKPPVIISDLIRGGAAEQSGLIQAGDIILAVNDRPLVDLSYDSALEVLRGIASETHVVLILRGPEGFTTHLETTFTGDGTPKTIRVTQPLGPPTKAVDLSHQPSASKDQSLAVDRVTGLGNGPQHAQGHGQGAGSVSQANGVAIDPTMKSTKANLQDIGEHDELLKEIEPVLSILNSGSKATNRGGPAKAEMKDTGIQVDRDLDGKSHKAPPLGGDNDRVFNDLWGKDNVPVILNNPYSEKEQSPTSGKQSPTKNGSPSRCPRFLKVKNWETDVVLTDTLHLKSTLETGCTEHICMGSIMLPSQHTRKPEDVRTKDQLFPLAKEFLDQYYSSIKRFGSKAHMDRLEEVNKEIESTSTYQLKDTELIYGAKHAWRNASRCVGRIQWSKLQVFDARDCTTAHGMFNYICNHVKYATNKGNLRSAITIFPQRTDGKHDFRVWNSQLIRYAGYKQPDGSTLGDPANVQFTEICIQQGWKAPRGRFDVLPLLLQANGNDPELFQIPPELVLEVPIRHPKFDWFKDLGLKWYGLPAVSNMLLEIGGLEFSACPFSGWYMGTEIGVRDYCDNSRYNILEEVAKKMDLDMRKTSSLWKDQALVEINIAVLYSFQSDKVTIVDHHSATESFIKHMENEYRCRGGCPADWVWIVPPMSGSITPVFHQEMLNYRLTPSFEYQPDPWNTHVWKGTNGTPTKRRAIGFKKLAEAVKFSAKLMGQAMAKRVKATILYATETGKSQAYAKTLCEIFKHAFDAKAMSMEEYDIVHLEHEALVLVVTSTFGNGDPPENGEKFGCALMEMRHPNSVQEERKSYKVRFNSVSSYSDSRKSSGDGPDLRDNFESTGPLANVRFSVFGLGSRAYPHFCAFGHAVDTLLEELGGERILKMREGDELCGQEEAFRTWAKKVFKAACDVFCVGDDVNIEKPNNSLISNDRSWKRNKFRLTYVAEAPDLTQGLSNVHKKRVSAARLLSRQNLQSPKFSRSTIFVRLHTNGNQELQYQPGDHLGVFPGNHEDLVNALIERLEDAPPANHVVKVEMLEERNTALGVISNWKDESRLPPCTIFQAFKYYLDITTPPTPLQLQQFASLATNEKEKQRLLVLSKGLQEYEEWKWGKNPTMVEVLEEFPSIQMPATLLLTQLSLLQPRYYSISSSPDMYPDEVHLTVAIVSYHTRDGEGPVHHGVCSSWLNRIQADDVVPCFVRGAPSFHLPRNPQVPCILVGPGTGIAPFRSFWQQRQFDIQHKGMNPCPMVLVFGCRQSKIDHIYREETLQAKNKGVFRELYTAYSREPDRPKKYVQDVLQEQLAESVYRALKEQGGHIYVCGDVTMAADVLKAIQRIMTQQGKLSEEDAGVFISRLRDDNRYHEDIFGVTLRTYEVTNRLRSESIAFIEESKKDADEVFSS

[5] = DRUGMATRIX: Phosphodiesterase PDE3 enzyme inhibition (substrate: [3H]cAMP + cAMP); assay type: tissue-based, Homo sapiens; conditions: platelet, Not Active = under 50% inhibition at 10 µM
Acetylcholinesterase = Acetylcholinesterase (Homo sapiens, UniProt P22303); test: DRUGMATRIX: Acetylcholinesterase enzyme inhibition (substrate: acetylthiocholine); assay type: cell-based, HEK293; conditions: Not Active = under 50% inhibition at 10 µM
Acetylcholinesterase, sequence (P22303 whole entry): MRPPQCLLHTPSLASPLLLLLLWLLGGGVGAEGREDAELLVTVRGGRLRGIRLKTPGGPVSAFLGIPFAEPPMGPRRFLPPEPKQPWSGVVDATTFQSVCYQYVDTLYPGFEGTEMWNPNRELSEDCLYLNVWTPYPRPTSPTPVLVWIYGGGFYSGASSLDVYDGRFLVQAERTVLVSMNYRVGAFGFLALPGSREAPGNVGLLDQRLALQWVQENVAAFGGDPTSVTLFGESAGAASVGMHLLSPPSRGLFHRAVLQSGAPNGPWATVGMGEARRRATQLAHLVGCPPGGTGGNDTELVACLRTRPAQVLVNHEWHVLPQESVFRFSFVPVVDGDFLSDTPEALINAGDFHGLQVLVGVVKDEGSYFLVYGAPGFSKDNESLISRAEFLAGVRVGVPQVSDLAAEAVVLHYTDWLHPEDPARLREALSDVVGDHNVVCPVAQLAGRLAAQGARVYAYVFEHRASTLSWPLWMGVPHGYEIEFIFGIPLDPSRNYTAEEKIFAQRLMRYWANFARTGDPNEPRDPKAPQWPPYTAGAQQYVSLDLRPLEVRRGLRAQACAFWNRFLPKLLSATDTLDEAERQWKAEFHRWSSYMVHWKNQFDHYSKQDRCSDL

Row | Compound | IC50 [1] | Ki [1] | IC50 [2] | Ki [2] | IC50 [3] | Ki [3] | IC50 [4] | Ki [4] | IC50 (Glycine receptor) | Ki (Glycine receptor) | IC50 (Nitric oxide synthase 1) | Ki (Nitric oxide synthase 1) | IC50 [5] | Ki [5] | IC50 (Acetylcholinesterase; hek293) | Ki (Acetylcholinesterase; hek293) | IC50 (Acetylcholinesterase; read-out: IC50) [nM] | IC50 ([5]; read-out: IC50) [nM]
1 | LEAD(IV) ACETATE | Not Active | Not Active | Not Active | Not Active | Not Active | Not Active | Not Active | Not Active | Not Active | Not Active | Not Active | Not Active | Not Active | Not Active | Not Active | Not Active |  | 
2 | CC#C[C@]1(O)CC[C@H]2[C@@H]3CCC4=CC(=O)CCC4=C3[C@@H](c3ccc(N(C)C)cc3)C[C@@]21C [MIFEPRISTONE] | Not Active | Not Active | Not Active | Not Active | Not Active | Not Active | Not Active | Not Active | Not Active |  | Not Active |  | Not Active | Not Active | Not Active |  |  | 
3 | CS(=O)(=O)c1ccc(C2=C(c3ccccc3)C(=O)OC2)cc1 [ROFECOXIB] | Not Active | Not Active | Not Active | Not Active | Not Active | Not Active | Not Active | Not Active | Not Active |  | Not Active |  | Not Active | Not Active | Not Active |  |  | 
4 | COC(=O)Nc1nc2ccc(C(=O)c3ccccc3)cc2[nH]1 [MEBENDAZOLE] | Not Active | Not Active | Not Active | Not Active | Not Active | Not Active | Not Active | Not Active | Not Active |  | Not Active |  | Not Active | Not Active | Not Active |  |  | 
5 | CC(O)C(=O)O (stereo not drawn) [LACTIC ACID] | Not Active | Not Active | Not Active | Not Active | Not Active | Not Active | Not Active | Not Active | Not Active |  | Not Active |  | Not Active | Not Active | Not Active |  |  | 
6 | CC(N)C12CC3CC(CC(C3)C1)C2 (stereo not drawn) [RIMANTADINE] | Not Active | Not Active | Not Active | Not Active | Not Active | Not Active | Not Active | Not Active | Not Active |  | Not Active |  | Not Active | Not Active | Not Active |  |  | 
7 | CN1C[C@H](CNC(=O)OCc2ccccc2)C[C@@H]2c3cccc4c3c(cn4C)C[C@H]21 [METERGOLINE] | Not Active | Not Active | Not Active | Not Active | Not Active | Not Active | Not Active | Not Active | Not Active |  | Not Active |  | Not Active | Not Active |  |  | 1340 | 
8 | CO[C@@H]1[C@@H](OC)[C@H](C)[C@@](O)(CC(=O)O)O[C@H]1[C@H](C)[C@H]1O[C@@]2(CC[C@@](C)([C@H]3CC[C@@](C)([C@@H]4O[C@@H]([C@H]5O[C@](C)(O)[C@H](C)C[C@@H]5C)C[C@@H]4O[C@@H]4C[C@H](OC)[C@@H](OC)[C@H](C)O4)O3)O2)C[C@H](O)[C@H]1C.N [MADURAMICIN] | Not Active | Not Active | Not Active | Not Active | Not Active | Not Active | Not Active | Not Active | Not Active |  | Not Active |  | Not Active | Not Active | Not Active |  |  | 
9 | CCOC(=O)C1=C(C)NC(C)=C(C(=O)OCC)C1c1ccccc1/C=C/C(=O)OC(C)(C)C [LACIDIPINE] | Not Active | Not Active | Not Active | Not Active | Not Active | Not Active | Not Active | Not Active | Not Active |  | Not Active |  | Not Active | Not Active | Not Active |  |  | 
10 | CC(C)(C)NC[C@H](O)COc1cccc2c1CCCC2=O [LEVOBUNOLOL] | Not Active | Not Active | Not Active | Not Active | Not Active | Not Active | Not Active | Not Active | Not Active |  | Not Active |  | Not Active | Not Active | Not Active |  |  | 
11 | Cc1[nH]c(=O)c(C#N)cc1-c1ccncc1 [MILRINONE] | Not Active | Not Active | Not Active | Not Active | Not Active | Not Active | Not Active | Not Active | Not Active |  | Not Active |  |  |  | Not Active |  |  | 958
12 | C1CCN2C[C@@H]3C[C@@H](CN4CCCC[C@@H]34)[C@H]2C1 [SPARTEINE] | Not Active | Not Active | Not Active | Not Active | Not Active | Not Active | Not Active | Not Active | Not Active |  | Not Active |  | Not Active | Not Active | Not Active |  |  | 
13 | Cc1cnc(NC(=O)C2=C(O)c3ccccc3S(=O)(=O)N2C)s1 [MELOXICAM] | Not Active | Not Active | Not Active | Not Active | Not Active | Not Active | Not Active | Not Active | Not Active |  | Not Active |  | Not Active | Not Active | Not Active |  |  | 
14 | CO[C@@]12[C@H](COC(N)=O)C3=C(C(=O)C(C)=C(N)C3=O)N1C[C@@H]1N[C@@H]12 [MITOMYCIN] | Not Active | Not Active | Not Active | Not Active | Not Active | Not Active | Not Active | Not Active | Not Active |  | Not Active |  | Not Active | Not Active | Not Active |  |  | 
15 | CC(Cl)(Cl)Cl [TRICHLOROETHANE] | Not Active | Not Active | Not Active | Not Active | Not Active | Not Active | Not Active | Not Active | Not Active |  | Not Active |  | Not Active | Not Active | Not Active |  |  | 
16 | O=[As][O-].[Na+] [SODIUM ARSENITE] | Not Active | Not Active | Not Active | Not Active | Not Active | Not Active | Not Active | Not Active | Not Active |  | Not Active |  | Not Active | Not Active | Not Active |  |  | 
17 | Cc1ccc(Cl)c(Nc2ccccc2C(=O)O)c1Cl [MECLOFENAMIC ACID] | Not Active | Not Active | Not Active | Not Active | Not Active | Not Active | Not Active | Not Active | Not Active |  | Not Active |  | Not Active | Not Active | Not Active |  |  | 
18 | Cc1ccc(S(=O)(=O)NC(=O)NN2CCCCCC2)cc1 [TOLAZAMIDE] | Not Active | Not Active | Not Active | Not Active | Not Active | Not Active | Not Active | Not Active | Not Active |  | Not Active |  | Not Active | Not Active | Not Active |  |  | 
19 | O=C(O)c1cc(/N=N/c2ccc(S(=O)(=O)Nc3ccccn3)cc2)ccc1O [SULFASALAZINE] | Not Active | Not Active | Not Active | Not Active | Not Active | Not Active | Not Active | Not Active | Not Active |  | Not Active |  | Not Active | Not Active | Not Active |  |  | 
20 | CC(=O)O[C@]1(C(C)=O)CC[C@H]2[C@@H]3C[C@H](C)C4=CC(=O)CC[C@]4(C)[C@H]3CC[C@@]21C [MEDROXYPROGESTERONE ACETATE] | Not Active | Not Active | Not Active | Not Active | Not Active | Not Active | Not Active | Not Active | Not Active |  | Not Active |  | Not Active | Not Active | Not Active |  |  | 
21 | CC[C@H](C)C(=O)O[C@H]1CCC=C2C=C[C@H](C)[C@H](CC[C@@H]3C[C@@H](O)CC(=O)O3)[C@H]21 [MEVASTATIN] | Not Active | Not Active | Not Active | Not Active | Not Active | Not Active | Not Active | Not Active | Not Active |  | Not Active |  | Not Active | Not Active | Not Active |  |  | 
22 | CCN(CC)CCNC(=O)c1cc(Cl)c(N)cc1OC [METOCLOPRAMIDE] | Not Active | Not Active | Not Active | Not Active | Not Active | Not Active | Not Active | Not Active | Not Active |  | Not Active |  | Not Active | Not Active | Not Active |  |  | 
